The results in this text go back to patent publication US5968952A, “Farnesyl transferase inhibiting 2-quinolone derivatives” (Janssen Pharmaceutica, N.V., priority 1995, dated 1999).

The target in assay [1] is T1, Human farnesyl protein transferase (Homo sapiens, UniProt P49354+P49356).
T1 construct: were used as a source of human enzyme; endogenous in cells; host or cells: Kirsten virus transformed human osteosarcoma (KHOS) cells (ATCC), grown as monolayers or as solid tumors in nude mice; ammonium sulfate fraction and Q Sepharose pool
Description: In Vitro Assay for Inhibition of Farnesyl Protein Transferase ([3H] Scintillation Proximity Assay). In kind it is biochemical. The following applies: Table 7; human enzyme from KHOS cells; biotinylated lamin B peptide substrate; 60 min, 37° C.; read-out: IC50 (concentration of test compound producing 50% inhibition of enzyme activity). The protocol: In Vitro Assay for Inhibition of Farnesyl Protein Transferase Human farnesyl protein transferase was prepared essentially as described ([…] al., Methods: A Companion to Methods in Enzymology vol 1, 241-245, 1990). Kirsten virus transformed human osteosarcoma (KHOS) cells (American Type Culture Collection, Rockvill, Md., USA) grown as solid tumors in nude mice or grown as monolayer cell cultures were used as a source of human enzyme. Briefly, cells or tumors were homogenized in buffer containing 50 mM Tris, 1 mM EDTA, 1 mM EGTA and 0.2 mM phenylmethylsulfonylfluoride (pH 7.5). The homogenates were centrifuged 28,000× g for 60 min and the supernatants collected. A 30-50% ammonium sulfate […] prepared, and the resulting precipitate was resuspended in a small (10 to 20 ml) volume of dialysis buffer containing 20 mM Tris, 1 mM dithiothreitol and 20 μM ZnCl2. The ammonium sulfate fraction was dialyzed overnight against two changes of the same buffer. The dialyzed material was applied to a 10×1 cm Q Fast Flow Sepharose (Pharmacia LKB Biotechnology Inc., Piscataway, N.J., USA) which had been preequilibrated with 100 ml of dialysis buffer supplemented with 0.05M NaCl. The column was washed with an additional 50 ml of dialysis buffer plus 0.05M NaCl followed by a gradient from 0.05M to 0.25M NaCl prepared in dialysis buffer. The enzyme activity was eluted with a linear gradient of 0.25 to 1.0M NaCl prepared in the dialysis buffer. Fractions containing 4 to 5 ml volumes of column eluate were collected and analyzed for farnesyl protein transferase activity. Fractions with enzyme activity were pooled and supplemented with 100 μM ZnCl2. Enzyme samples were stored frozen at -70° C. The activity of farnesyl protein transferase was measured using the Farnesyl Transferase [^3 H] Scintillation Proximity Assay (Amersham International plc., England) under the conditions specified by the manufacturer. […] The reaction mixture was warmed to 37° C. The enzyme reaction was started by adding 20 μl of diluted human farnesyl protein transferase. […] Reactions were terminated by the addition of STOP/scintillation proximity bead reagent (Amersham). The reaction product [^3 H]-farnesyl-(Cys)-biotin lamin B peptide was captured on the streptavidin linked scintillation proximity bead. The amount of [^3 H]-farnesyl-(Cys)-biotin lamin B peptide synthesized in the presence or absence of test compounds was quantified as cpm by counting on a Wallac Model 1480 Microbeta Liquid Scintillation Counter. The cpm of product was considered to be farnesyl protein transferase activity. The protein farnesyl transferase activity observed in the presence of test compound was normalized to farnesyl transferase activity in the presence of 10% DMSO and expressed as per cent inhibition. […] W. Johnson Pharmaceutical Research Institue (Spring House, Pa., USA) on a VAX computer.
(In general: Scintillation proximity formats need no separation of bound from free tracer.)

Assay [2] has as its system NIH 3T3 cells transformed by the T24 activated human H-ras gene. Description: Ras-Transformed Cell Phenotype Reversion Assay. In kind it is cell-based, mouse. The following applies: NIH3T3; Table 8; T24 H-ras transformed NIH 3T3 cells; 72 hours; cell counts. From the text:
"Ras-Transformed Cell Phenotype Reversion Assay" Insertion of activated oncogenes such as the mutant ras gene into mouse NIH 3T3 cells converts the cells to a transformed phenotype. The cells become tumorigenic, display anchorage independent growth in semi-solid medium and lose contact inhibition. Loss of contact inhibition produces cell cultures which no longer form uniform monolayers. Rather, the cells pile up into multicellular nodules and grow to very high saturation densities in plastic tissue culture dishes. Agents such as protein farnesyl transferase inhibitors which revert the ras transformed phenotype restore the uniform monolayer growth pattern to cells in culture. This reversion is easily monitored by counting the number of cells in tissue culture plates. Transformed cells will achieve higher cell numbers than cells which have reverted to an untransformed phenotype. Compounds which revert the transformed phenotype should produce antitumor effects in tumors bearing ras gene mutations. Method Compounds are screened in tissue culture in NIH 3T3 cells transformed by the T24 activated human H-ras gene. Cells are seeded at an initial density of 200,000 cells per well (9.6 cm^2 surface area) in six-well cluster tissue culture plates. Test compounds are immediately added to 3.0 ml cell growth mediuim in a 3.0 μl volume of DMSO, with a final concentration of DMSO in the cell growth medium of 0.1%. […] Then the cells are detached in 1.0 ml trypsin-EDTA cell dissociation medium and counted on a Coulter particle counter. Measurements Cell numbers expressed as cells per well are measured using a Coulter Particle Counter. All cell counts were corrected for the initial cell input density by subtracting 200,000. Control cell counts=[cell counts from cells incubated with DMSO vehicle--200,000] Test compound cell counts=[cell counts from cells incubated with test compound--200,000]. [formula]

SMILES strings stand for the structures.

In the case of `O=c1cc(-c2cccc(Cl)c2)c2cc(C(c3ccc(Cl)cc3)n3ccnc3)ccc2[nH]1` (single isomer, unassigned) [Compound 23], the IC50 came to 15 nM in assay [1] and 204 nM in assay [2]. For the molecule `CCC(c1ccc(Cl)cc1)(c1ccc2c(c1)c(-c1cccc(Cl)c1)cc(=O)n2C)n1ccnc1` (stereo not shown) [Compound 63], the figures for the IC50 in assay [1] and in assay [2] were 30 nM and 294 nM, respectively. On to `Cc1cncn1C(C)(c1ccc(Cl)cc1)c1ccc2c(c1)c(-c1cccc(Cl)c1)cc(=O)n2C` (stereo not shown) [Compound 64, 4-(3-chlorophenyl)-6-[1-(4-chlorophenyl)-1-(5-methyl-1H-imidazol-1-yl)ethyl]-1-methyl-2(1H)-quinolinone], for which the figures for the IC50 in assay [1] and in assay [2] were 11 nM and 133 nM, respectively. Regarding `Cn1c(=O)cc(-c2cccc(Cl)c2)c2cc(C(CO)(c3ccc(Cl)cc3)n3ccnc3)ccc21` (stereo not shown) [Compound 66], the values for the IC50 in assay [1] and in assay [2] were 5.6 nM and 53 nM, respectively. In turn, `COCC(c1ccc(Cl)cc1)(c1ccc2c(c1)c(-c1cccc(Cl)c1)cc(=O)n2C)n1ccnc1` (stereo not shown) [Compound 67] came in with an IC50 in assay [2] of 114 nM. Consider `CSCC(c1ccc(Cl)cc1)(c1ccc2c(c1)c(-c1cccc(Cl)c1)cc(=O)n2C)n1ccnc1` (stereo not shown) [Compound 69], for which the IC50 in assay [2] is 500 nM. On to `COCCn1c(=O)cc(-c2cccc(Cl)c2)c2cc(C(c3ccc(Cl)cc3)n3ccnc3)ccc21` (stereo not shown) [Compound 77, 4-(3-chlorophenyl)-6-[(4-chlorophenyl)(1H-imidazol-1-yl)methyl]-1-(2-methoxyethyl)-2(1H)-quinolinone ethanedioate (2:3) monohydrate], for which the IC50 in assay [1] was 7.2 nM; in assay [2], 189 nM. Regarding `CN(C)CCn1c(=O)cc(-c2cccc(Cl)c2)c2cc(C(c3ccc(Cl)cc3)n3ccnc3)ccc21` (stereo not shown) [Compound 80], the IC50 in assay [2] was determined as 169 nM.

For `Cn1c(=O)cc(-c2ccc3c(c2)OCO3)c2cc(C(c3ccc(Cl)cc3)n3ccnc3)ccc21` (stereo not shown) [Compound 83, 6-[(4-chlorophenyl)(1H-imidazol-1-yl)methyl]-4-(1,3-benzodioxol-5-yl)-1-methyl-2(1H)-quinolinone ethanedioate (1:1)], the IC50 in assay [1] is 3.4 nM; in assay [2], 68 nM. With `Cc1cc(C(c2ccc(Cl)cc2)n2ccnc2)cc2c(-c3cccc(Cl)c3)cc(=O)n(C)c12` (stereo not shown) [Compound 89], the IC50 in assay [2] worked out at 445 nM.
